The text below walks through data of ChEMBL document CHEMBL1129652, “Substituted 1,2-dihydrophthalazines: potent, selective, and noncompetitive inhibitors of the AMPA receptor” (J Med Chem, 1996).

Assay [1] has as its target Glutamate receptor ionotropic, AMPA (Rattus norvegicus, UniProt P19490+P19491+P19492+P19493).
Description: Inhibitory activity against AMPA receptor currents in rat cortical cells stimulated with 50 uM kainic acid
Assay [2] has as its target Glutamate receptor ionotropic, AMPA (Rattus norvegicus) (UniProt P19491+P19492+P19493+P19490). Kind of assay: Compound at 10 uM of kainic acid. Type of assay: functional.

Molecule `CCCNC(=O)N1N=C(c2ccc(N)cc2)c2cc3c(cc2C1C)OCO3` (stereo not drawn) came in with an IC50 in assay [1] of 2.8 µM.

As to `CNC(=O)N1N=C(c2ccc(N)cc2)c2cc3c(cc2CC1C)OCO3` (stereo not drawn) [GYKI-53655], it took 1 µM to reach half-maximal inhibition in assay [1] (IC50).

Turning to `CC1=NN=C(c2ccc(N)cc2)c2cc3c(cc2C1)OCO3` [GYKI-52466], in assay [1], inhibition was half-maximal at 10 µM (IC50).

Molecule `CNC(=O)N1N=C(c2ccc(N)cc2)c2cc3c(cc2C1C)OCO3` (stereo not drawn) gave an inhibition in assay [2] of 13%. Moreover, 23 µM corresponded to half-maximal inhibition in assay [1] (IC50). `CC1c2cc3c(cc2C(c2ccc(N)cc2)=NN1C(=O)NC(C)(C)C)OCO3` (stereo not drawn) displayed an IC50 in assay [1] of 5.4 µM. The same measure, in the same setting: for `CCNC(=O)N1N=C(c2ccc(N)cc2)c2cc3c(cc2C1C)OCO3` (stereo not drawn) the value was 7.2 µM. On the same count and under the same terms, for `CCCCNC(=O)N1N=C(c2ccc(N)cc2)c2cc3c(cc2C1C)OCO3` (stereo not drawn) the value was 1.8 µM.

The IC50 is the concentration needed to halve the response being measured. Lower therefore signals greater potency in that assay. In general, inhibition refers to how much of the control response was suppressed. Low values mean a response near the control, high ones a response far below the control.
